Source: ChEMBL document CHEMBL5608248, “Exploring the Therapeutic Potential of Entheogens in Postoperative Cognitive Decline and Psychological Resilience” (ACS Med Chem Lett, 2024)

Biological target: 5-hydroxytryptamine receptor 2A (Homo sapiens) (UniProt P28223)
Assay: Agonist activity at 5-HT2A (unknown origin) expressed in HEK293 cells assessed as increase in calcium influx by measuring maximal efficacy incubated for 50 mins by Fluo-4 dye based FLIPR assay relative to control
Type: functional, cell-based
Conditions: filed as agonist

Chain of 5-hydroxytryptamine receptor 2A (Homo sapiens) (P28223 whole entry): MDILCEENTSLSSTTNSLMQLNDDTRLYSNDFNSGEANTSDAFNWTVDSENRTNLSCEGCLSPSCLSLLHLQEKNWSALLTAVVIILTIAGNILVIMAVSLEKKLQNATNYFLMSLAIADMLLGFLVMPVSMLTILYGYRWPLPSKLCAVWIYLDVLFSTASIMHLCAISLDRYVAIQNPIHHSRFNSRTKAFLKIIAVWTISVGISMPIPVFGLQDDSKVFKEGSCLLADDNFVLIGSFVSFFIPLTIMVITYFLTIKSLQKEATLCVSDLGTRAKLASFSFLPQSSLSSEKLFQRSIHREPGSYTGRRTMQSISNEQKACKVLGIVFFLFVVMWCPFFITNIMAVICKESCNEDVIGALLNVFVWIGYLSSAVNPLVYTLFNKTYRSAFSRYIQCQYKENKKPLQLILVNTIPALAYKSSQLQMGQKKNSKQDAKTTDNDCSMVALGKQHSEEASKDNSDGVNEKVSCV

Structure (SMILES) | Emax
CN(CCc1cccc2cccc(O)c12)C1CC1 | 64%
CCN(C)CCc1cccc2ccc(OC)cc12 | 63%
CCN(C)CCc1cccc2cccc(O)c12 | 68%
CN(C)CCc1cccc2cccc(O)c12 | 73%
COc1cccc(CNCCc2cccc3ccc(OC)cc23)c1 | 84%
COc1ccc2cccc(CCN(C)C)c2c1 | 79%
CC(C)N(C)CCc1cccc2cccc(O)c12 | 79%
